Laboratory results reported in US20250268948A1, “COMPOSITIONS AND METHODS FOR TREATING POST ACUTE SEQUELAE OF SARS-COV-2 INFECTION (LONG COVID)” (priority 2022, published 2025).
Where two headings read alike, the source gives them in different places.

Key:
human MSCs = experiment: Stem cell migration assay (percent closure of cell-free zone); conditions: for EC50: Homo sapiens; for effect on MSC migration induced by curcumin and quercetin / effect on MSC migration induced by curcumin and resveratrol: 20 micromolar AMD3100 / 15 micromolar GM6001; for effect on MSC migration induced by curcumin and quercetin: FIG. 14; for effect on MSC migration induced by curcumin and resveratrol: FIG. 15
Protocol: FIG. 1 is a microphotograph depicting cell migration using fluorescent readout and cell tracker green as a fluorescent marker of human UC-MSCs. […] The EC50 was determined as a measure of effectiveness of activating agents. […] An initial analysis of the cell free zone using Image J software was used to screen concentrations of activating agents for dose-response determination in further experiments.
The cell migration assays described above were set up as follows: One million cells/cell line were resuspended in 10 mL MSC-GRO™ serum free, quiescent medium (Vitro Biopharma Cat. No. SC00B17) containing […] mitomycin C (Sigma, Cat. No. M4287) to inhibit proliferation and incubated for 2 hours at room temperature with end-to-end agitation at 7 RPM. In some experiments, curcumin was used at 1 μM to block proliferation. Cells were centrifuged (450×g) for 7 minutes, washed with phosphate buffered saline (PBS) and then resuspended in 1 mL MSC-GRO™ low serum, complete 20 medium (Vitro Biopharma Cat. No. SC00B1) and plated at 25,000 cells/well in black 96 well, TC-coated cell culture plates, (ThermoScientific, Cat. No. 165305) containing cell seed-stoppers (Platypus, Cat. No. CMAUFL4) to form a cell free zone at the center of the well and incubated in 5% CO2, 1% O2, 94% N2 at 37° C. in a humidified chamber for 24 hrs. Plates used for culture of NSCs, were first treated with 10 μg/mL fibronectin (Sigma, Cat. No. F0556) for 2 hours at 37° C. Following washout with PBS (3×), cell seed stoppers were inserted, NSCs were plated at 25,000/well and incubated in 5% CO2, 1% O2, 94% N2 at 37° C. in a humidified chamber for 48 hrs. For studies of the effects of CXCR4 and MMP-9 inhibition, following 24 hours of cell culture, appropriate wells were dosed with 15 μM GM6001 and 20 μM AMD3100 for 6 hours. Cells were washed once with PBS then incubated in serum free, MSC-GRO™ (Vitro Biopharma Cat. No. SC00B17) containing 5 μM Cell Tracker Green CMFDA (Molecular Probes, Cat. No. C7025) at 37° C. for 30 minutes. The wells were then washed with serum free, MSC-Gro™ (Vitro Biopharma Cat. No. SC00B17) and incubated for 30 minutes at 37° C. Cells were washed once with PBS and this was replaced with MSC-GRO™ serum free, quiescent medium (Vitro Biopharma Cat. No. SC00B1I7) containing different concentrations of activating agents. […] A TOPSEAL™ (PerkinElmer, Cat. No. 6050195) covered the plate for live-cell imaging in a BioTek Cytation3 Imaging Reader. […] The gas phase throughout the acquisition of kinetic data was 5% O2, 5% CO2 with the balance nitrogen maintained by a BioTek CO2/O2 gas controller. Images were saved as TIFF files to calculate percent closure using imaging data.

FGF-21 = experiment: qPCR gene expression analysis in human MSCs; type: cell-based; conditions: for FGF-21 expression increase: 250 μM VPA, 500 nM curcumin, up to 2 weeks, FIG. 13
Protocol: (§1) Beta actin was measured as a house-keeping gene. […] Gene expression was quantified by determining the amount of gene-specific DNA/total cDNA. Data are mean+/−SD of 4 replicates.
(§2) Native human umbilical cord-derived MSCs (Vitro Biopharma Cat. No. SC00A1) were expanded from cryopreservation in a T-25 TC-coated flasks (BD Falcon, Cat. No. 353108) in MSC-GRO™ low serum, complete medium (Vitro Biopharma Cat. No. SC00BI). Cells were subcultured and counted on a Beckerman-Coulter Z2 particle counter (range 10 μm-30 μm). Cells were plated at 10,000/cm^2 a TC-coated Greiner Bio-One T75 flask and maintained in MSC-GRO™ serum free, complete medium (Vitro Biopharma Cat. No. SC00B3) in a reduced 02 environment (1% O2, 5% CO2, 94% N2) at 37° C. in a humidified chamber. The MSCs were treated continuously for up to 2 weeks. Cultures were fed every three days. Cells were harvested using ACCUTASE™ (Innovative Cell Technologies Inc., Cat No AT-104) and centrifuged (450×g) for 7 minutes. Cell supernatant was aspirated off and cells were resuspended in 1 mL PBS and counted on a Beckerman-Coulter Z2 particle counter (range 10 μm-30 μm). Total RNA was extracted using RNeasy Mini Kit (Qiagen Cat. No. 74104). RNA was quantified using an absorbance measurement at 260 nm. RNA was converted to cDNA using Quantitect Reverse Transcription Kit (Qiagen Cat. No. 205310) in a thermocycler. RNA was incubated in the gDNA elimination reaction for 2 minutes at 42° C. then incubated in the reverse-transcription master mix for 15 minutes at 42° C. Immediately after, it was incubated at 95° C. for 3 minutes for inactivation. cDNA was sent to an outside lab (CU-Anschutz Metabolic Laboratory) for q-PCR to detect relative or absolute gene expression levels. cDNA was diluted 1:5 and iTaq Universal Supermix fluorescent probe (BioRad Cat. No. 172-5120) used to detect the threshold cycle (Ct) during PCR. Dilution factors and cDNA concentrations were calculated into recorded values then normalized to untreated hMSCs (Vitro Biopharma Cat. No. SC00A1).
(§3) Gene expression was quantified by determining the amount of gene-specific DNA/total cDNA. Data are mean+/−S.D. of 4 replicates.
(§4) Native human umbilical cord-derived MSCs (Vitro Biopharma Cat. No. SCOOA1) were expanded from cryopreservation in a T-25 TC-coated flasks (BD Falcon, Cat. No. 353108) in MSC-GRO™ low serum, complete medium (Vitro Biopharma Cat. No. SC00B1). Cells were subcultured and counted on a Beckerman-Coulter Z2 particle counter (range 10 μm-30 μm). […] The MSCs were treated continuously for up to 2 weeks. Cultures were fed every three days. Cells were harvested using ACCUTASE™ (Innovative Cell Technologies Inc., Cat No AT-104) and centrifuged (450×g) for 7 minutes. Cell supernatant was aspirated off and cells were resuspended in 1 mL PBS and counted on a Beckerman-Coulter Z2 particle counter (range 10 μm-30 μm).
(§5) Total RNA was extracted using RNeasy Mini Kit (Qiagen Cat. No. 74104). RNA was quantified using an absorbance measurement at 260 nm. RNA was converted to cDNA using Quantitect Reverse Transcription Kit (Qiagen Cat. No. 205310) in a thermocycler. RNA was incubated in the DNA elimination reaction for 2 minutes at 42° C. then incubated in the reverse-transcription master mix for 15 minutes at 42° C. Immediately after, it was incubated at 95° C. for 3 minutes for inactivation. cDNA was sent to an outside lab (CU-Anschutz Metabolic Laboratory) for q-PCR to detect relative or absolute gene expression levels. cDNA was diluted 1:5 and iTaq Universal Supermix fluorescent probe (BioRad Cat. No. 172-5120) used to detect the threshold cycle (Ct) during PCR. Dilution factors and cDNA concentrations were calculated into recorded values then normalized to untreated hMSCs (Vitro Biopharma Cat. No. SC00A1).

Oct 3/4 = experiment: qPCR gene expression analysis in human MSCs; type: cell-based; conditions: for Oct 3/4 expression increase: 250 μM VPA, 500 nM curcumin, compared to beta-actin, FIG. 13
Protocol: as §1, §2, §3, §4, §5

CXCR4 = experiment: qPCR gene expression analysis in human MSCs; type: cell-based; conditions: for CXCR4 expression increase: 250 μM VPA, 500 nM curcumin, up to 2 weeks, FIG. 13
Protocol: as §3, §4, §5

Hsp70 = experiment: qPCR gene expression analysis in human MSCs; type: cell-based; conditions: for Hsp70 expression increase: 250 μM VPA, 500 nM curcumin, up to 2 weeks, FIG. 13
Protocol: as §3, §4, §5

MSCs = experiment: Cell-based proliferation assay (Presto Blue); conditions: Homo sapiens
Protocol: The effects of fibroblast growth factor 2 (FGF-2), lithium, and VPA on stem cell proliferation were then investigated, using an assay based on Presto Blue, a fluorescent marker of cellular reduction. FIG. 8 is a line graph representation illustrating proliferation of different cell lines induced by increasing concentrations of FGF-b (FGF-2) after a 5 day exposure. Relative fluorescent units were measured using a FITC filter on a Modulus Microplate Reader and plotted as a function of FGF-2. The data were modeled by sigmoidal curve fitting to calculate EC50 values. […] Proliferation of these mesenchymal cells was stimulated by recombinant human FGF-2 with EC50 values in the range of 3 ng/mL to 6 ng/mL with maximal proliferative responses at about 10 ng/mL.

SIRT-1 = experiment: qPCR gene expression analysis in human MSCs; type: cell-based; conditions: up to 2 weeks; for SIRT-1 expression increase: 250 μM VPA, 500 nM curcumin, FIG. 13
Protocol: as §1, §2, §3, §4, §5

human fibroblast = conditions: read-out: EC50, human fibroblast migration induced by substance P, prior study; suspension culture system; Parenti et al. 1996; cited from earlier work
[1] = curcumin at 500 nM, statistically significant

SMILES: COc1cc(/C=C/C(=O)CC(=O)/C=C/c2ccc(O)c(OC)c2)ccc1O [curcumin]
- concentration at which curcumin blocked migration by apparent toxicity (human MSCs; 36-hour run, FIG. 4): greater than 1 μM
- estimated LD50 (apparent toxicity, reduced cell number) (human MSCs; 36-hour run, FIG. 4): 3 µM
- EC50 (human MSCs; 36 h, read-out: apparent EC50, curcumin-induced migration): 0.25 µM
- FGF-21 expression increase compared to untreated cells (FGF-21; [1]): at least 20 fold
- Oct 3/4 expression increase (Oct 3/4; up to 2 weeks): about 20 fold
- Oct 3/4 expression increase compared to untreated cells (Oct 3/4; [1]): at least 10 fold
- CXCR-4 expression increase compared to untreated cells (CXCR4; [1]): at least 20 fold
- Hsp70 expression increase compared to untreated cells (Hsp70; [1]): at least 20 fold

SMILES: CCCC(CCC)C(=O)O [VPA, valproic acid]
- EC50 (human MSCs; read-out: EC50, migration, increasing VPA in 200 μM lithium, MSCs, FIG. 6): 36 µM
- concentration of maximum closure (human MSCs; VPA alone, FIG. 5): 100 µM
- EC50 (MSCs; 120 h, increasing VPA in 200 μM lithium, MSCs, 5 day exposure, FIG. 10, read-out: EC50, proliferation): 39 µM
- EC50 (MSCs; in the presence of 200 μM lithium, MSCs and NSCs, range over migration and proliferation assays, read-out: VPA concentration 50% effective in inducing cell proliferation and migration): 35 to 39 µM
- EC50 (MSCs; in the presence of 200 μM lithium, MSCs and NSCs, read-out: VPA concentration 50% effective in inducing cell proliferation and migration, mean): 37 µM
- Oct 3/4 expression increase vs untreated human MSCs (Oct 3/4; 31.25 μM VPA, 200 μM lithium, up to 2 weeks, FIG. 11): about 20 fold
- Oct 3/4 expression increase (Oct 3/4; up to 2 weeks): about 20 fold
- SIRT-1 expression increase vs untreated MSC (SIRT-1; 31.25 μM VPA, 200 μM lithium, FIG. 11): ~300 fold

SMILES: CCCC(=O)[O-].[Na+] [Na butyrate]
- FGF-21 expression increase (FGF-21): lower levels
- Oct 3/4 expression increase (Oct 3/4; up to 2 weeks): less expression activation
- SIRT-1 expression increase (SIRT-1): significantly less effective
- CXCR4 expression increase (CXCR4): lower levels
- Hsp70 expression increase (Hsp70): lower levels

SMILES: CNC(=O)[C@H](Cc1c[nH]c2ccccc12)NC(=O)[C@@H](CC(=O)NO)CC(C)C [GM6001]
- effect on lithium induced CB-MSC migration (human MSCs; 15 μM GM6001, MMP-9 inhibitor, FIG. 7): blocked lithium induced CB-MSCs
- effect on MSC migration induced by curcumin and quercetin (human MSCs): blocked MSC migration
- effect on MSC migration induced by curcumin and resveratrol (human MSCs): blocked MSC migration

SMILES: c1cc(CN2CCCNCCNCCCNCC2)ccc1CN1CCCNCCNCCCNCC1 [AMD3100]
- effect on VPA-induced CB-MSC migration (human MSCs; 20 μM AMD3100, CXCR-4 inhibitor, FIG. 7): blocked the VPA-induced CB-MSC migration
- effect on MSC migration induced by curcumin and quercetin (human MSCs): blocked MSC migration
- effect on MSC migration induced by curcumin and resveratrol (human MSCs): blocked MSC migration

SMILES: CCCCC(=O)O [valeric acid]
- FGF-21 expression increase (FGF-21): lower levels
- Oct 3/4 expression increase (Oct 3/4; up to 2 weeks): less expression activation
- SIRT-1 expression increase (SIRT-1): significantly less effective
- CXCR4 expression increase (CXCR4): lower levels
- Hsp70 expression increase (Hsp70): lower levels

SMILES: CSCC[C@H](NC(=O)[C@H](CC(C)C)NC(=O)CNC(=O)[C@H](Cc1ccccc1)NC(=O)[C@H](Cc1ccccc1)NC(=O)[C@H](CCC(N)=O)NC(=O)[C@H](CCC(N)=O)NC(=O)[C@@H]1CCCN1C(=O)[C@H](CCCCN)NC(=O)[C@@H]1CCCN1C(=O)[C@@H](N)CCCNC(=N)N)C(N)=O [substance P]
- MSC migration into cell-free zone (human MSCs; 3.7 nM substance P, 24 hours, human UC-MSCs, FIG. 1): induced MSC migration into the cell-free center of the well
- migration (percent closure) dose-response (human MSCs; CB-MSCs, 0 to 18.5 nM, 24-hour live cell analysis, FIG. 2): migration increased in a dose-dependent manner
- EC50 (human fibroblast): 0.0022 µM

SMILES: CC(/C=C/C(=O)NO)=C\[C@@H](C)C(=O)c1ccc(N(C)C)cc1 [TSA]
- FGF-21 expression increase (FGF-21): lower levels
- Oct 3/4 expression increase (Oct 3/4; up to 2 weeks): less expression activation
- SIRT-1 expression increase (SIRT-1): significantly less effective
- CXCR4 expression increase (CXCR4): lower levels
- Hsp70 expression increase (Hsp70): lower levels
